Assay results reported in patent publication US5208240A, “8-substituted purines as selective adenosine receptor agents” (Merrell Dow Pharmaceuticals Inc., priority 1991, dated 1993).

Columns and labels:
A1-adenosine receptor = test: Adenosine A1 receptor binding (method of Goodman et al.)
Protocol: (§1) IC50 values for A1 -adenosine receptor binding is determined according to the method of Goodman et al. [Mol. Pharmacol. 21:329-35, 1982]. IC50 values for A2 -adenosine receptor binding is determined according to the method of Bruns et al. [Mol. Pharmacol. 29:331-46, 1986].

A2-adenosine receptor = target: T1, A2-adenosine receptor (Rattus norvegicus, UniProt P30543); test: Adenosine A2 receptor binding (method of Bruns et al.)
T1 construct: from tissue
Protocol: as §1

T1 sequence (P30543 whole entry): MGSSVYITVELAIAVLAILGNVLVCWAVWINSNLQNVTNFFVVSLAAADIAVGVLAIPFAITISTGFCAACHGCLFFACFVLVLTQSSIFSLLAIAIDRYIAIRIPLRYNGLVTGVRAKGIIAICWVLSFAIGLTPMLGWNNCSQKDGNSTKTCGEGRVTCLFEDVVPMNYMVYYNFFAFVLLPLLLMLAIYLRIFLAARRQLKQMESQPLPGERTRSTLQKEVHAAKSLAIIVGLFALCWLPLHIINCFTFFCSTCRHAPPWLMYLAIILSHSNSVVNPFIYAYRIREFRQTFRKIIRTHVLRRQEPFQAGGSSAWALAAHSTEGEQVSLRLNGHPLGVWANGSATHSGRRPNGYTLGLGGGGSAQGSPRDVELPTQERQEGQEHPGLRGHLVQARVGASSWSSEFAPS

| SMILES | IC50 (A1-adenosine receptor) | IC50 (A2-adenosine receptor) |
| --- | --- | --- |
| CCCn1c(=O)c2nc(C(CC)c3ccc(OCC(=O)O)cc3)[nH]c2n(CCC)c1=O (stereo not drawn) [Compound 101673, 2-[4-[1-(2,3,6,9-Tetrahydro-1,3-dipropyl-2,6-dioxo-1H-purin-8-yl)propyl]phenoxy]acetic acid] | 1.18 µM | > 10 µM |
| CCCn1c(=O)c2nc(C(C)Cc3ccc(OCC(=O)NCCN)cc3)[nH]c2n(CCC)c1=O (stereo not drawn) [Compound 101345, N-(2-Aminoethyl)-2-[4-[2-(2,3,6,9-tetrahydro-1,3-dipropyl-2,6-dioxo-1H-purin-8-yl)propyl]phenoxy]-acetamide] | 0.014 µM | 0.036 µM |
| CCCn1c(=O)c2nc(C(C)Cc3ccc(OCC(=O)O)cc3)[nH]c2n(CCC)c1=O (stereo not drawn) [Compound 101699, 2-[4-[2-(2,3,6,9-Tetrahydro-1,3-dipropyl-2,6-dioxo-1H-purin-8-yl)propyl]phenoxy]acetic acid] | 0.327 µM | 5.7 µM |
| CCCn1c(=O)c2nc(C(C)Cc3ccc(OCC(=O)NCCN)cc3)[nH]c2n(CCC)c1=O (single isomer, unassigned; (+)) [Compound 101993, (+)-N (2-Aminoethyl)-2-[4-[2-(2,3,6,9-tetrahydro-1,3-dipropyl-2,6-dioxo-1H-purin-8-yl)propyl]phenoxy]-acetamide] | 0.06 µM | 1.8 µM |

The next compounds have a lower IC50 (A1-adenosine receptor) than those just listed; values first:

| IC50 (A1-adenosine receptor) | IC50 (A2-adenosine receptor) | SMILES |
| --- | --- | --- |
| 0.01 µM | 0.3 µM | CCCn1c(=O)c2nc(C(C)Cc3ccc(OCC(=O)NCCN)cc3)[nH]c2n(CCC)c1=O (single isomer, unassigned; (-)) [Compound 100991, (-)-N-(2-Aminoethyl)-2-[4-[2-(2,3,6,9-tetrahydro-1,3-dipropyl-2,6-dioxo-1H-purin-8-yl)propyl]phenoxy]-acetamide] |
| 0.0044 µM | 0.06 µM | CCCn1c(=O)c2nc(C(CC)c3ccc(OCC(=O)NCCN)cc3)[nH]c2n(CCC)c1=O (stereo not drawn) [Compound 102130, N-(2Aminoethyl)-2-[4-[1-(2,3,6,9-tetrahydro-1,3-dipropyl-2,6-dioxo-1H-purin-8-yl)propyl]phenoxy]-acetamide] |
